Experiments:
[1] = test system: PARP1; assay: Therapeutic index, ratio of LD40 for human HCT116 cells to drug concentration that reduced half the amount of streptozotocin required to inhibit PARP1-mediated 90% human HCT116 cell growth; assay type: cell-based, HCT-116; conditions: read-out: TI
[2] = target: Poly [ADP-ribose] polymerase 1 (Homo sapiens, UniProt P09874)
Description: Inhibition of PARP1 in human HeLa cells by fluid scintillation counting using [adenylated-32P]NAD as substrate

[3] = test system: HCT-116; assay: Cytotoxicity against human HCT116 cells; assay type: cell-based

Chain of Poly [ADP-ribose] polymerase 1 (P09874 whole entry): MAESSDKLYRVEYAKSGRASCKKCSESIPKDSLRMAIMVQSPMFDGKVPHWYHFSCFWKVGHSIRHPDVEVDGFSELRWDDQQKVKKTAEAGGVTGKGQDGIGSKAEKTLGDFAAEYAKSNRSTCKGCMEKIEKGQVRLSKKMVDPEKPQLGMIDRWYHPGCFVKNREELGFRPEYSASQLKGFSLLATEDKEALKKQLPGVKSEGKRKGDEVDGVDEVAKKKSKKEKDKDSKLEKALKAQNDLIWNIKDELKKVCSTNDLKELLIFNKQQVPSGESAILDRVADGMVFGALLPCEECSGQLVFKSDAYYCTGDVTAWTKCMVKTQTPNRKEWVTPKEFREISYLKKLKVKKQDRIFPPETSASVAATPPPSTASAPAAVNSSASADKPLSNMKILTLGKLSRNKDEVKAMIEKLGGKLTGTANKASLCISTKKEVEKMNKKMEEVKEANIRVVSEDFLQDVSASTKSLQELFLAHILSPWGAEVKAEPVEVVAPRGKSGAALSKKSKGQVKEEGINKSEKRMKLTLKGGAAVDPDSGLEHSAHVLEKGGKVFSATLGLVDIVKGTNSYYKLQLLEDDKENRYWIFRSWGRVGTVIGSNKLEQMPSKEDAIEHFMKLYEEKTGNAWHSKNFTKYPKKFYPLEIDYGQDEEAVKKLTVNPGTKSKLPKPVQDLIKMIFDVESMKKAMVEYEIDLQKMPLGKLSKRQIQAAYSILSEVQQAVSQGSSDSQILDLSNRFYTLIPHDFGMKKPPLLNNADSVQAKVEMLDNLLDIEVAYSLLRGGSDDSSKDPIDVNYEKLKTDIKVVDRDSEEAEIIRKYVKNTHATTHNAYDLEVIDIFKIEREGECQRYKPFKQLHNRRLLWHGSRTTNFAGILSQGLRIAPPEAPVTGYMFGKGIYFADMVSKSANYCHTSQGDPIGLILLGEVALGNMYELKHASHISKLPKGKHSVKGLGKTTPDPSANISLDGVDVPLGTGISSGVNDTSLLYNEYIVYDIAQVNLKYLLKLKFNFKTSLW

| IC50 [2] [µM] | SMILES | selectivity ratio [1] | LD40 [3] [µM] |
| --- | --- | --- | --- |
| 0.16 | Cc1cccc2c1CCNC2=O | – | – |
| 0.06 | COc1ccc(-c2nc3c(C(N)=O)cccc3[nH]2)cc1 | – | – |
| > 10 | Cc1nn(-c2ccccc2)c2[nH]c(=O)c3c(c12)CSC3 | – | – |
| 7 | Cc1nn(C)c2[nH]c3c(c(=O)c12)CCC3 | – | – |
| 0.0022 | Cc1nn(C)c2[nH]c(=O)c3c(c12)CCCC3 | > 6.6 | > 12.5 |
| > 10 | O=c1[nH]c2c(c(-c3ccccc3)nn2-c2ccccc2)c2c1CCC2 | – | – |
| 0.0073 | Cn1nc(-c2ccccc2)c2c1NC(=O)C1CCCCC21 (configuration not stated) | 19.7 | 7.5 |
| > 10 | Cc1nn(-c2ccccc2)c2[nH]c(=O)c3c(c12)CCC3 | – | – |
| 1.84 | Cc1nn(C(C)(C)C)c2[nH]c(=O)c3c(c12)CSC3 | – | – |
| 0.0069 | Cn1nc(-c2cccs2)c2c3c(c(=O)[nH]c21)CCCC3 | > 32.9 | > 12.5 |
| > 10 | Cc1nn(C)c2nc3c(c(O)c12)CSC3 | – | – |
| 0.428 | Cn1nc(-c2cccs2)c2c3c(c(=O)[nH]c21)CSC3 | – | – |
| 0.519 | Cc1nn(C(C)(C)C)c2[nH]c(=O)c3c(c12)CCC3 | – | – |
| > 10 | Cc1nn(C)c2[nH]c3c(c(=O)c12)CCCC3 | – | – |
| 9.72 | Cc1nn(-c2ccccc2)c2[nH]c(=O)c3c(c12)CCCC3 | – | – |
| > 10 | O=c1[nH]c2c(c(-c3ccccc3)nn2-c2ccccc2)c2c1CCCC2 | – | – |

| SMILES | IC50 [2] [µM] | selectivity ratio [1] | LD40 [3] [µM] |
| --- | --- | --- | --- |
| Cc1nn(C)c2[nH]c(=O)c3c(c12)CSC3 | 0.0927 | > 1.8 | > 50 |
| Cn1nc(-c2ccccc2)c2c3c(c(=O)[nH]c21)CSC3 | 0.11 | 1.4 | 21.2 |
| Cn1nc(-c2ccccc2)c2c3c(c(=O)[nH]c21)CCC3 | 0.106 | 1.6 | 42.5 |
| Cn1nc(-c2cccs2)c2c3c(c(=O)[nH]c21)CCC3 | 0.149 | 3.6 | 11.2 |
| Cc1nn(C)c2[nH]c(=O)c3c(c12)CCC3 | 0.0298 | 1.4 | 27.2 |
